From patent publication US7893098B2, “Pyrrole and pyrazole DAAO inhibitors” (Sepracor Inc., priority 2003, dated 2011)

Legend:
Purified pig DAAO = Purified pig DAAO (Sus scrofa, UniProt P00371); test: In vitro measurement of DAAO activity (Amplex Red H2O2 / phenylglycine assay); assay type: biochemical; details: read-out: Inhibition of DAAO, IC50
Procedure: Purified pig DAAO, added to a buffered mixture of 50 mM D-Serine produces H202 in stoichiometric amounts for each D-Serine molecule oxidized. H202 production can be monitored with a commercially available dye Amplex Red, which in the presence of H202, is converted to the fluorescent product resorufin. For each described inhibitor, the fluorescence was also measured during additions of 80 μM H202 in the absence of DAAO, to control for artifactual inhibition of the dye conversion, and to quantify the amount of H202 produced. In an alternative assay of DAAO activity, the purified pig DAAO is added to buffered mixture of 1 mM phenylglycine in the presence of compounds. The activity of DAAO is monitored spectrophotometrically by its enzymatic conversion of phenylglycine to benzoylformic acid with optical absorption at 252 nm.
Inhibitors of DAAO's enzymatic cycle were serially diluted to reduce the level of inhibition. The parameters of a non-linear equation were adjusted to fit the resulting series of inhibition levels to extrapolate the concentration of compound where 50% inhibition is achieved (IC50). These numbers are averaged for the number (n) of independent measurements (on separate days) of the inhibition.

[1] = Rat brain uptake, carotid perfusion; assay type: in vivo; details: 30 second perfusion into left hemisphere, PBS pH 7.4; N of 4 rats
Description: Experiments that evaluate the rat brain penetration of test compounds use a perfusion system where the left carotid artery is cannulated and the branch arteries are tied off. The test compound plus internal controls are perfused for 30 seconds into the left hemisphere in phosphate buffered saline at pH 7.4. The internal controls are atenolol (with low brain uptake) and antipyrine (with high brain uptake). After a 30 second washout with perfusate, the brain is removed surgically. The left hemisphere is homogenized; test compounds (plus internal controls) are extracted from brain homogenate, and analyzed using LC/MS/MS to determine the concentration of test compound and internal controls in the brain.

Sequence of Purified pig DAAO (P00371 whole entry): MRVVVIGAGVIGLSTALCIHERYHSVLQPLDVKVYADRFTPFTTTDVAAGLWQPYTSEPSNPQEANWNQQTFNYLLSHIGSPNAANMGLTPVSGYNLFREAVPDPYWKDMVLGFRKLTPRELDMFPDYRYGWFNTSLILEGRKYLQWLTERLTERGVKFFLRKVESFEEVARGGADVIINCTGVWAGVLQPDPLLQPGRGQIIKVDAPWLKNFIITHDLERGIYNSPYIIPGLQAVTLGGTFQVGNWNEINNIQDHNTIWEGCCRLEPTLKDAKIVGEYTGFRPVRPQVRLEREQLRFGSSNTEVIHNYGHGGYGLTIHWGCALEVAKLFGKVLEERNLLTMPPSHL

Row | SMILES | IC50 (Purified pig DAAO) | Rat Brain Uptake Rate, pmol/g brain/sec [1]
1 | O=C(O)c1cc(CCc2ccccc2)c[nH]1 | < 1 µM | 
2 | O=C(O)c1n[nH]c2c1CCCC2 | < 1 µM | 
3 | O=C(O)c1cc([N+](=O)[O-])[nH]n1 | < 1 µM | 
4 | O=C(Cc1ccc(Cl)cc1)c1c[nH]c(C(=O)O)c1 | < 100 µM | 
5 | Cc1cc(C(=O)O)no1 | < 100 µM | 
6 | O=C(O)c1cc[nH]n1 | < 100 µM | 
7 | CCCCCCCCCCC(=O)c1c[nH]c(C(=O)O)c1 | < 100 µM | 
8 | O=C(O)c1n[nH]c2c1CCCCCC2 | < 10 µM | 
9 | Cc1cc(C(=O)O)n[nH]1 | < 10 µM | 
10 | O=C(O)c1ccc[nH]1 | < 10 µM | 
11 | O=C(O)c1n[nH]c2c1COCC2 | < 10 µM | 
12 | CC(C)C1CCc2[nH]nc(C(=O)O)c2C1 (centres unmarked) | < 100 µM | 
13 | O=C(O)c1n[nH]c2c1CCCC2CCc1ccccc1 (centres unmarked) | < 100 µM | 
14 | O=C(O)c1n[nH]c2c1CCCC2Cc1ccccc1 (centres unmarked) | < 10 µM | 
15 | CC1CCc2[nH]nc(C(=O)O)c2C1 (centres unmarked) | < 10 µM | 
16 | CC1CCc2c(C(=O)O)n[nH]c21 (centres unmarked) [Compound 6, 6-methyl-1,4,5,6-tetrahydrocyclopentapyrazole-3-carboxylic acid] | < 10 µM | 
17 | O=C(O)c1n[nH]c2c1CCCCC2 [Compound 15, 1,4,5,6,7,8-Hexahydrocycloheptapyrazole-3-carboxylic acid] | < 10 µM | 
18 | COc1ccc(CCc2cc(C(=O)O)n[nH]2)cc1 [Compound 24, 5-[2-(4-Methoxyphenyl)-ethyl]-1H-pyrazole-3-carboxylic acid] | < 1 µM | 
19 | O=C(O)c1cc(CCCc2ccccc2)c[nH]1 [Compound 45, 4-(3-phenylpropyl)-1H-pyrrole-2-carboxylic acid] | < 100 µM | 
20 | O=C(O)c1cc(CCc2ccccc2Br)c[nH]1 [Compound 65, 4-[2-(2-bromophenyl)-ethyl]-1H-pyrrole-2-carboxylic acid] | < 1 µM | 
21 | O=C(O)c1cc(CCc2ccc(Cl)cc2)n[nH]1 [Compound 69, 5-[2-(4-Chlorophenyl)-ethyl]-1H-pyrazole-3-carboxylic acid] | < 1 µM | 
22 | O=C(O)c1cc(CCc2ccc(Cl)cc2)c(Br)[nH]1 [Compound 70, 5-bromo-4-[2-(4-chlorophenyl)-ethyl]-1H-pyrrole-2-carboxylic acid] | < 0.1 µM | 
23 | C[C@@H](Cc1cc(C(=O)O)n[nH]1)c1ccccc1 [Compound 80, (S)-5-(2-phenylpropyl)-1H-pyrazole-3-carboxylic acid] | < 10 µM | 
24 | O=C(O)c1n[nH]c2c1CCC2 [drawing 44] | < 1 µM | 
25 | O=C(O)c1n[nH]c2c1CCC2 [drawing 70] |  | 6 pmol/g brain/sec

Results, then the compound that gave them:

Row | IC50 (Purified pig DAAO) | Rat Brain Uptake Rate, pmol/g brain/sec [1] | SMILES
26 | < 100 µM |  | CC1CCc2c(C(=O)O)n[nH]c2C1 (centres unmarked)
27 | < 1 µM |  | CC(C)c1cc(C(=O)O)n[nH]1
28 | < 1 µM |  | O=C(O)c1n[nH]cc1[N+](=O)[O-]
29 | < 10 µM |  | CC1CCCc2c(C(=O)O)n[nH]c21 (centres unmarked)
30 | < 100 µM |  | O=C(O)c1cc(CCc2ccccc2)on1
31 | < 100 µM |  | O=C(O)c1n[nH]c2c1CCCC2C1CCCCC1 (centres unmarked)
32 | < 10 µM |  | O=C(O)c1cc2c([nH]1)CCCC2
33 | < 100 µM |  | O=C(O)c1n[nH]c2c1CC(OCc1ccccc1)CC2 (centres unmarked)
34 | < 100 µM |  | O=C(Cc1ccccc1)c1c[nH]c(C(=O)O)c1
35 | < 100 µM |  | CC(=O)c1c[nH]c(C(=O)O)c1
36 | > 100 µM |  | Cc1cc(C)c(C(=O)O)[nH]1
37 | > 100 µM |  | O=C(O)c1n[nH]c2c1CCc1ccccc1-2
38 | < 10 µM |  | CC1(C)CCc2c(C(=O)O)n[nH]c21 [Compound 3, 6,6-Dimethyl-1,4,5,6-tetrahydrocyclopentapyrazole-3-carboxylic acid]
39 | < 1 µM | 17 pmol/g brain/sec | CC(C)CCCc1cc(C(=O)O)n[nH]1 [Compound 18, 5-(4-methylpentyl)-1H-pyrazole-3-carboxylic acid]
40 | < 1 µM | 6 pmol/g brain/sec | O=C(O)c1cc(CCc2ccccc2)[nH]n1 [Compound 21, 5-phenethyl-1H-pyrazole-3-carboxylic acid]
41 | > 100 µM |  | O=C(O)c1ccc(Cc2ccccc2)[nH]1 [Compound 32, 5-benzyl-1H-pyrrole-2-carboxylic acid]
42 | < 100 µM |  | O=C(O)c1ccc(CCc2ccccc2)[nH]1 [Compound 36, 5-phenethyl-1H-pyrrole-2-carboxylic acid]
43 |  | 204 pmol/g brain/sec | O=C(O)c1cc(CCc2ccc(Cl)cc2)c[nH]1 [Compound 39, 4-[2-(4-chlorophenyl)-ethyl]-1H-pyrrole-2-carboxylic acid]
44 | < 1 µM |  | O=C(O)c1cc(COc2ccccc2)[nH]n1 [Compound 42, 5-phenoxymethyl-1H-pyrazole-3-carboxylic acid]
45 | < 10 µM |  | CC(C)CCc1cc(C(=O)O)n[nH]1 [Compound 48, 5-(3-methylbutyl)-1H-pyrazole-3-carboxylic acid]
46 | < 1 µM |  | CC(C)=CCCc1cc(C(=O)O)n[nH]1 [Compound 51, 5-(4-Methylpent-3-enyl)-1H-pyrazole-3-carboxylic acid]
47 | < 100 µM |  | CC1CCCC(C)(C)C1CCc1cc(C(=O)O)n[nH]1 (centres unmarked) [Compound 54, 5-[2-(2,2,6-trimethylcyclohexyl)-ethyl]-1H-pyrazole-3-carboxylic acid]
48 | < 1 µM |  | CC(Cc1cc(C(=O)O)n[nH]1)c1ccccc1 (centres unmarked) [Compound 58, 5-(2-phenylpropyl)-1H-pyrazole-3-carboxylic acid]
49 | < 1 µM |  | CC(Cc1ccccc1)c1cc(C(=O)O)n[nH]1 (centres unmarked) [Compound 62, 5-(1-methyl-2-phenylethyl)-1H-pyrazole-3-carboxylic acid]
50 | < 1 µM |  | O=C(O)c1cc(CCc2ccc(F)cc2)c[nH]1 [Compound 73, 4-[2-(4-fluorophenyl)-ethyl]-1H-pyrrole-2-carboxylic acid]
51 | < 10 µM |  | O=C(O)c1cc(CCCC2CCCC2)c[nH]1 [Compound 76, 4-(3-Cyclopentylpropyl)-1H-pyrrole-2-carboxylic acid]
